Test results published in patent US7582418B2, “Antimicrobial chelates” (Albion Laboratories, Inc., priority 2004, dated 2009).

Tests used:
Assay type in all cases: cell-based
Candida albicans [1] = experiment: Turbidity assay (TSB tubes, plated out); design: key: no-growth (NG) which corresponds with excellent inhibitory activity; partial growth (PG) which corresponds with good inhibitory activity; complete growth (CG) which corresponds with little or no inhibitory activity; conditions: TSB tube with 1.0 mL sample solution (100 mg/mL) and 100 μL 24-hour culture; after 24 hours plated, incubated 24 hours
Experimental: (§1) In the second method, turbidity assays were conducted. Tryptic soy broth (TSB) tubes were inoculated with 1.0 mL of sample solutions (100 mg/mL) and 50 μL of 24-hour cultures of each microbe. In the case of C. albicans, 100 μL of 24-hour culture was used. After 24 hours, an aliquot from each tube was plated out onto nutrient media and incubated for 24 hours. Following incubation, colonies on each plate were observed and characterized as one of three categories: no-growth (NG) which corresponds with excellent inhibitory activity, partial growth (PG) which corresponds with good inhibitory activity, complete growth (CG) which corresponds with little or no inhibitory activity.
(§2) S. pyongenes, could not be grown in the solution, so the turbidity assay was not conducted for that microorganism. When the data from both zone inhibition (Table 2) and turbidity (Table 3) assays are compared, an indication of the inhibition activity may be evident.

Staphlococcus aureus [2] = experiment: Turbidity assay (TSB tubes, plated out); design: key: no-growth (NG) which corresponds with excellent inhibitory activity; partial growth (PG) which corresponds with good inhibitory activity; complete growth (CG) which corresponds with little or no inhibitory activity; conditions: TSB tube with 1.0 mL sample solution (100 mg/mL) and 50 μL 24-hour culture; after 24 hours plated, incubated 24 hours
Experimental: as §1, §2

Eschrichia coli [3] = experiment: Turbidity assay (TSB tubes, plated out); design: key: no-growth (NG) which corresponds with excellent inhibitory activity; partial growth (PG) which corresponds with good inhibitory activity; complete growth (CG) which corresponds with little or no inhibitory activity; conditions: TSB tube with 1.0 mL sample solution (100 mg/mL) and 50 μL 24-hour culture; after 24 hours plated, incubated 24 hours
Experimental: as §1, §2

Streptococcus pyogenes = experiment: Zone inhibition assay (filter paper disc area diffusion); conditions: distance from edge of disc to bacterial growth; blood agar; discs saturated with 100 mg/ml solution (antibiotic control discs 5-30 μg); 24 hours at 37° C.
Experimental: (§3) Two methods were used to examine whether an inhibitory effect from the zinc containing compounds was observable and if there was an inhibitory effect, whether the effect was bactericidal (bacteria-killing) or bacteriostatic (bacterial-inhibiting) in nature. In the first method, two Gram-positive bacteria strains (Staphlococcus aureus, Streptococcus pyogenes), two Gram-negative bacteria strains (Salmonella typhimerium, Eschrichia coli), and one common yeast strain (Candida albicans) were grown nutrient agar plates, except in the case of S. pyogenes which was grown on blood agar plates.
(§4) Zone inhibition assays were conducted with eighteen different samples in accordance with the methodology described by Maruzella, J. C. and Henry, P. A., J. Am. Pharm. Assoc. 47:894 (1958) for filter paper disc area diffusion. Sample solutions were prepared to approximate 100 mg/mL concentrations.
(§5) Organisms were grown for 24 hours at 37° C. on blood agar plates with the exception of Candida albicans which was grown in a standard methods agar (SMA) medium. Solutions of each sample were prepared using sterile DD water at a concentration of 100 mg/ml. Paper discs were saturated with solution from each sample and dried aseptically. […] Following drying of solution derived discs, all discs were placed on agar plates with each of the five different microorganisms.

Candida albicans [4] = experiment: as above; conditions: distance from edge of disc to growth; discs saturated with 100 mg/ml solution (antibiotic control discs 5-30 μg); 24 hours at 37° C.
Experimental: as §3, §4, §5

Staphlococcus aureus [5] = experiment: as above; conditions: distance from edge of disc to bacterial growth; discs saturated with 100 mg/ml solution (antibiotic control discs 5-30 μg); 24 hours at 37° C.
Experimental: as §3, §4, §5

Eschrichia coli [6] = experiment: as above; conditions: distance from edge of disc to bacterial growth; discs saturated with 100 mg/ml solution (antibiotic control discs 5-30 μg); 24 hours at 37° C.
Experimental: as §3, §4, §5

Salmonella typhimerium = experiment: as above; conditions: distance from edge of disc to bacterial growth; discs saturated with 100 mg/ml solution (antibiotic control discs 5-30 μg); 24 hours at 37° C.
Experimental: as §3, §4, §5

Compound	colony growth category, Candida albicans (Candida albicans [1])	colony growth category, Staphlococcus aureus (Staphlococcus aureus [2])	colony growth category, Eschrichia coli (Eschrichia coli [3])	inhibitory zone, Streptococcus pyogenes (Streptococcus pyogenes)	inhibitory zone, Candida albicans (Candida albicans [4])	inhibitory zone, Staphlococcus aureus (Staphlococcus aureus [5])	inhibitory zone, Eschrichia coli (Eschrichia coli [6])	inhibitory zone, Salmonella typhimerium (Salmonella typhimerium)
[Cl-].[Cl-].[Zn+2] [Sample 1, Zinc Chloride]	PG	PG	PG	2.5 millimeters	4.5 millimeters	6 millimeters	4 millimeters	3.5 millimeters
O=C([O-])CC(O)(CC(=O)[O-])C(=O)[O-].O=C([O-])CC(O)(CC(=O)[O-])C(=O)[O-].[Zn+2].[Zn+2].[Zn+2] [Sample 2, Zinc Citrate]	–	–	–	3.5 millimeters	no activity	1 millimeters	1.5 millimeters	–
CC(=O)[O-].CC(=O)[O-].[Zn+2] [Sample 3, Zinc Acetate]	–	–	–	3.5 millimeters	2 millimeters	2 millimeters	3 millimeters	3 millimeters
O=S(=O)([O-])[O-].[Zn+2] [Sample 4, Zinc Sulfate]	CG	CG	CG	2 millimeters	2 millimeters	3.7 millimeters	3.5 millimeters	3 millimeters
NCC(=O)[O-].NCC(=O)[O-].[Zn+2] [Sample 5, Zinc Bis-Glycinate]	NG	PG (1)	NG	4 millimeters	0.5 millimeters	3.5 millimeters	3.5 millimeters	3.5 millimeters
O=C([O-])CCCCC1CCSS1.O=C([O-])CCCCC1CCSS1.[Zn+2] (centres unmarked) [Sample 6, Zinc Lipoate]	–	–	–	1 millimeters	no activity	1.5 millimeters	.5 millimeters	2 millimeters
NC[C@@H]1O[C@H](O[C@H]2[C@@H](O)[C@H](O[C@@H]3[C@@H](O)[C@H](N)C[C@H](N)[C@H]3O[C@H]3O[C@H](CN)[C@@H](O)[C@H](O)[C@H]3N)O[C@@H]2CO)[C@H](N)[C@@H](O)[C@@H]1O [Sample 8, Neomycin]	–	–	–	3 millimeters	no activity	6 millimeters	3 millimeters	6 millimeters
O=C(O)c1cn(C2CC2)c2cc(N3CCNCC3)c(F)cc2c1=O [Sample 9, Ciproflaxicin]	–	–	–	3 millimeters	no activity	8.5 millimeters	5 millimeters	10 millimeters
CC1(C)S[C@@H]2[C@H](NC(=O)[C@H](N)c3ccc(O)cc3)C(=O)N2[C@H]1C(=O)O [Sample 10, Amoxicillin]	–	–	–	–	no activity	7.5 millimeters	3.5 millimeters	8 millimeters
CN(C)[C@@H]1C(O)=C(C(N)=O)C(=O)[C@@]2(O)C(O)=C3C(=O)c4c(O)cccc4[C@@](C)(O)[C@H]3C[C@@H]12 [Sample 11, Tetracycline]	–	–	–	no activity	no activity	7.5 millimeters	5.5 millimeters	7 millimeters
CN[C@H](CC(C)C)C(=O)N[C@H]1C(=O)N[C@@H](CC(N)=O)C(=O)N[C@H]2C(=O)N[C@H]3C(=O)N[C@H](C(=O)N[C@H](C(=O)O)c4cc(O)cc(O)c4-c4cc3ccc4O)[C@H](O)c3ccc(c(Cl)c3)Oc3cc2cc(c3O[C@@H]2O[C@H](CO)[C@@H](O)[C@H](O)[C@H]2O[C@H]2C[C@](C)(N)[C@H](O)[C@H](C)O2)Oc2ccc(cc2Cl)[C@H]1O [Sample 13, Vancomycin]	–	–	–	5 millimeters	no activity	5 millimeters	no activity	no activity
[Cl-].[Na+] [Sample 14, Sodium Chloride]	–	–	–	no activity	no activity	no activity	no activity	no activity
NCC(=O)[O-].[Na+] [Sample 16, Sodium Glycinate]	–	–	–	no activity	no activity	no activity	no activity	no activity
O=S(=O)([O-])[O-].[Na+].[Na+] [Sample 17, Sodium Sulfate]	–	–	–	no activity	no activity	no activity	no activity	no activity
O=C([O-])CC(O)(CC(=O)[O-])C(=O)[O-].[Na+].[Na+].[Na+] [Sample 18, Sodium Citrate]	–	–	–	no activity	no activity	no activity	no activity	–
Zinc Gluconate [Sample 7]	–	–	–	5 millimeters	no activity	3 millimeters	2 millimeters	2.75 millimeters
